Earlier results as cited in PMC6714113 (Research in Pharmaceutical Sciences, 2019).

Details: read-out: IC50 (cytotoxicity)

In the case of `N[C@@H](Cc1ccc(B(O)O)cc1)C(=O)O` [BPA, boronophenylalanine], the IC50 is listed as > 4 mM.
